# Assay: In vitro inhibitory potency was measured against phenylethanolamine N-methyl-transferase
structure (smiles),measurement,value
CC(N)Cc1ccc(Cl)cc1 (configuration not stated) [para-chloroamphetamine],IC50,300 µM
NCc1cccc(Cl)c1 [(3-chlorophenyl)methanamine],IC50,9 µM
